Literature values in US20220154183A1, “CHMP2A as a Regulator of Natural Killer Cell-Mediated Activity” (The Regents of the University of California, priority 2019, published 2022).

Test system: HNSCC
Settings: cetuximab as monotherapy

Substance	patients responding
Nivolumab	20%
pembrolizumab	20%
